Data published in patent publication US20020058696A1, “Chelate compound-containing antibacterial agent for helicobacter pylori” (DIRECTOR OF NTL. INST. OF AGROBIOLOGICAL RESOURCES , …, priority 2000, published 2002).

Assays:
[1] = FAO/WHO Codex Alimentarius Commission, 1973; cited from earlier work
[2] = test system: Helicobacter pylori ATCC 43504 strain
Protocol: Helicobacter pylori (ATCC 43504 strain, purchased from American Type Culture Collection) was cultured with use of a 96-well plate. […] After inoculation of Helicobacter pylori, the plate was introduced in a sealed vessel of 2.5 liter volume, into which Anaero Pack-Helico (made by Mitsubishi Gas Chemical), an agent for absorbing oxygen and generating carbon dioxide gas, was also introduced, and cultured for 5 days under an anaerobic condition at 37° C.
Growth of Helicobacter pylori was determined by means of a 96-well plate reader with use of a 540 nm or 595 nm filter. Herein, as a control for absorbance determination, a medium without EDTA was used.

SMILES | acceptable daily intake (ADI) as a food additive [1] | concentration at which growth of Helicobacter pylori is inhibited ([2]; ATCC 43504 strain, medium pH 8.0, cultured 5 days at 37° C under anaerobic condition, turbidity at 540 nm or 595 nm against control medium, from FIG. 1 / FIG. 2) | amount to be taken to inhibit growth of Helicobacter pylori ([2]; calculated for a human stomach volume of about 1.5 L, amount of the salt) | amount to be taken to inhibit growth of Helicobacter pylori, as free EDTA ([2]; calculated for a human stomach volume of about 1.5 L, expressed as free EDTA) | growth-inhibiting concentration converted into ([2]; conversion of 0.025-1 mM using molecular weight 372Da)
O=C(O)CN(CCN(CC(=O)O)CC(=O)O)CC(=O)O [EDTA, Ethylenediaminetetraacetic acid] | 2.5 mg/kg of weight |  |  |  | 
O=C([O-])CN(CCN(CC(=O)O)CC(=O)O)CC(=O)[O-].[Na+].[Na+] [disodium ethylenediaminetetraacetate] |  | 0.025 to 1 mM | 14 to 558 mg | 11 to 438 mg | 9.3 to 372 mg/L
